From patent US8188059B2, “Compounds and methods for modulating expression of GCGR” (Isis Pharmaceuticals, Inc., priority 2006, dated 2012)
Strand notation (5' to 3'): a small letter for the sugar, then the base; units joined by * are phosphorothioate-linked, units joined directly phosphodiester-linked; [ ] holds rarer units or linkages, { } end groups; capitals alone tell only the bases. e = 2'-O-(2-methoxyethyl) (MOE); [5mC] = 5-methylcytosine; d = 2'-deoxy (DNA)

Assays:
SGLT2 mRNA = SGLT2 mRNA levels in kidney of Balb/c mice, twenty 1-10-1 MOE gapmers at 350 nmol/kg, PPS 534 and PPS 553 (Example 18, Table 74); type: in vivo, mouse; conditions: 350 nmol/kg i.p. twice per week for two weeks
Protocol: Twenty 1-10-1 MOE gapmers that are complementary to human/monkey/mouse/rat SGLT2 were designed, synthesized and tested in vivo for suppression of SGLT2 mRNA levels in kidney. Data are averages from two experiments in which male 6-week old Balb/c mice were administered intraperitoneal injections of 350 nmol/kg of oligonucleotide, twice per week, over a period of two weeks (a total of four injections). Mice were sacrificed 48 hours following the last administration and evaluated for SGLT2 mRNA levels in kidney. SGLT2 mRNA levels were determined by quantitative real-time PCR analysis according to standard procedures, using two different PCR primer probe sets, primer probe set (PPS) 534 and PPS 553. SGLT2 mRNA levels were normalized to cyclophilin mRNA levels, which were also measured by quantitative real-time PCR.

rat DGAT2 mRNA = assay: Dose-dependent inhibition of DGAT2 in A10 cells, 6.25-200 nM (Example 22, Table 82); type: cell-based
Protocol: Additional short antisense compounds targeted to DGAT2 mRNA were tested in vitro in a dose-response experiment. A10 cells were prepared as described above and treated with 6.25, 12.5, 25.0, 50.0, 100.0, and 200.0 nM short antisense compounds to determine if DGAT2 inhibition occurs in a dose-dependent manner. […] Results are presented as percent inhibition, relative to untreated control cells.

| Substance | SGLT2 mRNA in kidney, % change relative to saline (SGLT2 mRNA; primer probe set 534) [%] | SGLT2 mRNA in kidney, % change relative to saline (SGLT2 mRNA; primer probe set 553) [%] | further results |
| --- | --- | --- | --- |
| 379698 (antisense eG*d[5mC]*dA*dG*d[5mC]*d[5mC]*d[5mC]*dA*d[5mC]*d[5mC]*dT*e[5mC]) [compound 379698] | −11.8 | −27.0 |  |
| 379702 (antisense eG*d[5mC]*dA*d[5mC]*dA*d[5mC]*dA*dG*d[5mC]*dT*dG*e[5mC]) [compound 379702] | −87.8 | −89.5 |  |
| 379691 (antisense eA*dG*dA*dT*d[5mC]*dT*dT*dG*dG*dT*dG*eA) [compound 379691] | −35.0 | −48.6 |  |
| 372562 (antisense eG*eT*d[5mC]*dT*dT*dG*dG*dA*dG*dG*dG*d[5mC]*e[5mC]*eG) [compound 372562] |  |  | percent inhibition of DGAT2 (rat DGAT2 mRNA; 6.25 nM): 0; percent inhibition of DGAT2 (rat DGAT2 mRNA; 12.5 nM): 0; percent inhibition of DGAT2 (rat DGAT2 mRNA; 50.0 nM): 36; percent inhibition of DGAT2 (rat DGAT2 mRNA; 100.0 nM): 48; percent inhibition of DGAT2 (rat DGAT2 mRNA; 200.0 nM): 75; percent inhibition of DGAT2 (rat DGAT2 mRNA; […]): 0 |
| 379700 (antisense e[5mC]*d[5mC]*dA*dG*d[5mC]*dA*dT*dG*dA*dG*dT*e[5mC]) [compound 379700] | −2.8 | −16.4 |  |
| 379697 (antisense e[5mC]*dT*dG*dG*d[5mC]*dA*dT*dG*dA*d[5mC]*d[5mC]*eA) [compound 379697] | −32.0 | −46.3 |  |
| 379703 (antisense eG*d[5mC]*d[5mC]*dG*dG*dA*dG*dA*d[5mC]*dT*dG*eA) [compound 379703] | −44.2 | −45.9 |  |
| 379687 (antisense eG*dA*dT*dG*dT*dT*dG*d[5mC]*dT*dG*dG*e[5mC]) [compound 379687] | −47.1 | −52.1 |  |
| 379689 (antisense eA*dG*dA*dG*d[5mC]*dG*d[5mC]*dA*dT*dT*d[5mC]*e[5mC]) [compound 379689] | −17.5 | −30.4 |  |
| 379684 (antisense eT*dG*dT*d[5mC]*dA*dG*d[5mC]*dA*dG*dG*dA*eT) [compound 379684] | −45.0 | −43.2 |  |
| 379694 (antisense eG*dA*d[5mC]*dG*dA*dA*dG*dG*dT*d[5mC]*dT*eG) [compound 379694] | −42.1 | −54.4 |  |
